Laboratory results as given in patent US20250134918A1, “COMPOSITIONS AND METHODS USING A NICOTINAMIDE ADENINE DINUCLEOTIDE (NAD+) PRECURSOR AND AT LEAST ONE KETONE OR KETONE PRECURSOR” (SOCIETE DES PRODUITS NESTLE S.A., priority 2018, published 2025).

System: human iPSC-derived astrocytes (homozygous ApoE 3 or homozygous ApoE4 genotype)
Assay: Oxygen consumption (Seahorse XF96), FCCP-uncoupled maximal respiration
Assay type: cell-based
Conditions: hiPSC-derived astrocytes, ApoE3 (FIG. 6) and ApoE4 (FIG. 7); NR 0.5 mM for 24 hours; BHB 0.5 mM or 2 mM or BHP 2 mM for 1 h; FCCP 1 μM
Procedure: Differentiated human iPSC-derived astrocytes with either a homozygous ApoE 3 genotype or homozygous ApoE4 genotype (and otherwise isogenic) were obtained from Cellular Dynamics International (CDI, Madison, WI, USA). The cells were thawed according to the manufacturer's instructions. Astrocytes were cultured in DMEM supplemented with 10% fetal calf serum and N2 complement. Oxygen consumption in human iPSC-derived astrocytes was measured in a Seahorse XF96 instrument (Seahorse Bioscience, North Billerica, MA, USA). Astrocytes were seeded directly into Seahorse 96-well tissue culture plates (XF96 FluxPaks no. 102416-100; Seahorse Bioscience) at a density of 40,000 cells per well. Cells were incubated for 24 hours with 0.5 mM of Nicotinamide riboside chloride (NR) or fresh medium before experiment. Four days after seeding, the cells were washed twice in KRBH containing 1 mM glucose and incubated for 1 h with the ketone bodies BHB (racemic (D,L) BHB) or BHP (D BHP) at the concentration indicated. The cells were maintained at 37° C. during the experiment. Mitochondrial respiration rates were determined every 6 minutes. […] The oxygen consumption rate in hiPSC-derived astrocytes was measured as an indication of mitochondrial function, using a Seahorse instrument. Through addition of the uncoupling agent FCCP, uncoupled (=maximal) respiration was determined.

## NC(=O)c1ccc[n+]([C@@H]2O[C@H](CO)[C@@H](O)[C@H]2O)c1 [NR, Nicotinamide riboside chloride]
  maximal respiration (uncoupled oxygen consumption rate): Neither ketone bodies alone nor NR treatment significantly increases maximal respiration
